Measured values: US12630523B2, “Isoquinoline derivatives for use as antiviral and antitumour agents” (priority 2021, dated 2026)

The compounds below were run on cell signaling molecules (4E-BP1, p70 S6 kinase, Akt, PTPN14, p53, PD-L1) (assay: Western blot of cell signaling molecules in CaSki cells). Details: CaSki, 6 h; order 10 μM VSP035, Torin 1, Torin 2, rapamycin, 5 μM VSP035, CGP 57380.

SMILES | Phosphorylation of 4E-BP1 on Ser65 and the p70S6 kinase on Thr389
Nc1ccc(-c2ccc3ncc4ccc(=O)n(-c5cccc(C(F)(F)F)c5)c4c3c2)cn1 [Torin2, reference compound] | inhibited or strongly reduced
CCC(=O)N1CCN(c2ccc(-n3c(=O)ccc4cnc5ccc(-c6cnc7ccccc7c6)cc5c43)cc2C(F)(F)F)CC1 [Torin 1, reference compound] | inhibited or strongly reduced

Same assay, conditions: CaSki, 6 h treatment

SMILES | phosphorylation of AKT on Ser473
Nc1ccc(-c2ccc3ncc4ccc(=O)n(-c5cccc(C(F)(F)F)c5)c4c3c2)cn1 [Torin2, reference compound] | inhibited
CCC(=O)N1CCN(c2ccc(-n3c(=O)ccc4cnc5ccc(-c6cnc7ccccc7c6)cc5c43)cc2C(F)(F)F)CC1 [Torin 1, reference compound] | inhibited

What follows are compounds tested on CaSki (ATCC CRM-CRL-1550) (assay: Monolayer assay using Sulphorhodamine B (SRB) staining, CaSki). Details: Homo sapiens, Ca-Ski, read-out: EC50 mean [nM].
Type: cell-based
Protocol: Various cell culture cells grown as monolayers are harvested from exponential growing cultures after treatment with various OC compounds at different concentrations. For this depending on the cell line, 10.000 to 30.000 cells were plated in 96-well flat-bottom microtiter plates. After a 24 h recovery period to allow cells to resume exponential growth, supernatants are discarded and 100 μl of culture medium (eight control wells/plate) or culture medium with the test compound are added by a liquid handling robotic system (Microlab® Starlet, Hamilton) and treatment continued for 72 hrs. Compounds are applied at 9 concentrations and eight wells/concentration). At least three independent experiments are performed. For SRB staining, cells are fixed with SRB01 (Tab. 5) for 1 h at 4° C. (final concentration of TCA=10%) washed with a plate washer (Hydroflex, Tecan©) for five times with H2O; and stained with 100 μl of SRB02 at room temperature for 10 min following 4 washes in SRB03 and finally 100 μl of developer solution SRB04 for 5 minutes with shaking. Optical density is assessed using a plate-reader (Sunrise, Tecan©) at 540 nm.
Concentrations required for half maximal response of the compound for cell growth inhibition (EC50) is calculated by non-linear regression (log[conc. of inhibitor] versus response (% T/C)) using the analysis software GraphPad Prism®, Prism 5 for windows, version 5.01 (GraphPad Software Inc., CA).

SMILES | EC50
Cc1ccc(CN2C(=O)c3ccccc3[C@@H](C(=O)Nc3cccc(N4CCN(C)CC4)c3)[C@@H]2c2ccc(C(F)(F)F)nc2)cc1 (relative stereo) [OC968] | 10600 nM
Cc1ccc(CN2C(=O)c3ccccc3[C@@H](C(=O)Nc3ccc(N4CCN(C)CC4)cc3)[C@@H]2c2ccc(C(F)(F)F)cc2)cc1 (relative stereo) [OC972] | 67700 nM

The compounds below were run on CaSki cells (assay: Cell cycle analysis using Propidium-Iodide staining (flow cytometry)). Details: 48 hour incubation, 5 μM, no treatment 15.0.
Type: cell-based, human
Protocol: Propidium-Iodide (PI) DNA staining is performed to facilitate cell cycle analysis. For PI-DNA staining, fixed cells and eventually antibody-stained cells are resuspended in 450 μl of PBS (per 10^6 cells) and incubated with 100 μg/ml RNase (stock 1 mg/ml, in PBS) for 10 minutes at 37° C. Cells are then incubated with 5 μg/106 cells of PI (stock 1 mg/ml in PBS) for 10 minutes at room temperature. Samples are stored at 4° C. until CF analysis.
CaSki cells were incubated with various compounds and cell cycle distribution of the cells was assessed using Propidium-Iodide staining.
In order to analyze the cytostatic versus the cytotoxic effect of OC compounds, cell cycle profiles were analyzed in vitro after 48 hour incubations using Flow Cytometry as a read out. For this a cell cycle analysis from selected OC E7 degrader compounds was conducted in CaSki cells. Using 6 well plates, 1.5×10^5 cells were seeded for each well and grown over night at 37° C. 5% CO2. For analysis of the cell cycle behavior, cells were analyzed in the presence of propidium Iodide (PI^−) by flow cytometry (FC). Briefly, cells were detached by trypsin digestion, all supernatants were included in the analysis, and fixed with 70% ice cold ethanol and stored at 4° C. until FC analysis using PI^− staining (1 mg/ml). At least 7000 events were acquired for each sample.

SMILES | A*/5 μM (apoptosis as measured from total SUB G1 content)
Cc1ccc(CN2C(=O)c3ccccc3[C@@H](C(=O)Nc3cccc(N4CCN(C)CC4)c3)[C@@H]2c2ccc(C(F)(F)F)nc2)cc1 (relative stereo) [OC968] | 11.9%
Cc1ccc(CN2C(=O)c3ccccc3[C@@H](C(=O)Nc3ccc(N4CCN(C)CC4)cc3)[C@@H]2c2ccc(C(F)(F)F)cc2)cc1 (relative stereo) [OC972] | 12.8%

Same assay, conditions: 48 hour incubation, 10 μM, no treatment 15.0

SMILES | A*/10 μM (apoptosis as measured from total SUB G1 content)
Cc1ccc(CN2C(=O)c3ccccc3[C@@H](C(=O)Nc3cccc(N4CCN(C)CC4)c3)[C@@H]2c2ccc(C(F)(F)F)nc2)cc1 (relative stereo) [OC968] | 11.6%
Cc1ccc(CN2C(=O)c3ccccc3[C@@H](C(=O)Nc3ccc(N4CCN(C)CC4)cc3)[C@@H]2c2ccc(C(F)(F)F)cc2)cc1 (relative stereo) [OC972] | 13.5%

Same assay, conditions: cell cycle distribution, 48 hour incubation, 5 μM, no treatment 15.6

SMILES | G2/5 μM
Cc1ccc(CN2C(=O)c3ccccc3[C@@H](C(=O)Nc3cccc(N4CCN(C)CC4)c3)[C@@H]2c2ccc(C(F)(F)F)nc2)cc1 (relative stereo) [OC968] | 18.0%
Cc1ccc(CN2C(=O)c3ccccc3[C@@H](C(=O)Nc3ccc(N4CCN(C)CC4)cc3)[C@@H]2c2ccc(C(F)(F)F)cc2)cc1 (relative stereo) [OC972] | 16.9%

Same assay, conditions: cell cycle distribution, 48 hour incubation, 5 μM, no treatment 53.3

SMILES | G1/5 μM
Cc1ccc(CN2C(=O)c3ccccc3[C@@H](C(=O)Nc3cccc(N4CCN(C)CC4)c3)[C@@H]2c2ccc(C(F)(F)F)nc2)cc1 (relative stereo) [OC968] | 52.7%
Cc1ccc(CN2C(=O)c3ccccc3[C@@H](C(=O)Nc3ccc(N4CCN(C)CC4)cc3)[C@@H]2c2ccc(C(F)(F)F)cc2)cc1 (relative stereo) [OC972] | 53.2%

Same assay, conditions: cell cycle distribution, 48 hour incubation, 10 μM, no treatment 15.6

SMILES | G2/10 μM
Cc1ccc(CN2C(=O)c3ccccc3[C@@H](C(=O)Nc3cccc(N4CCN(C)CC4)c3)[C@@H]2c2ccc(C(F)(F)F)nc2)cc1 (relative stereo) [OC968] | 19.7%
Cc1ccc(CN2C(=O)c3ccccc3[C@@H](C(=O)Nc3ccc(N4CCN(C)CC4)cc3)[C@@H]2c2ccc(C(F)(F)F)cc2)cc1 (relative stereo) [OC972] | 15.9%

Same assay, conditions: cell cycle distribution, 48 hour incubation, 10 μM, no treatment 53.3

SMILES | G1/10 μM
Cc1ccc(CN2C(=O)c3ccccc3[C@@H](C(=O)Nc3cccc(N4CCN(C)CC4)c3)[C@@H]2c2ccc(C(F)(F)F)nc2)cc1 (relative stereo) [OC968] | 48.0%
Cc1ccc(CN2C(=O)c3ccccc3[C@@H](C(=O)Nc3ccc(N4CCN(C)CC4)cc3)[C@@H]2c2ccc(C(F)(F)F)cc2)cc1 (relative stereo) [OC972] | 48.4%

What follows are compounds tested on SARS-CoV-2 isolate BetaCov/Belgium/GHB-03021/2020 (assay: microbe, parasite or virus in culture). Details: 1.25 μM (non-toxic compound concentration), n4.
Type: cell-based

SMILES | % Inhibition
Nc1ccc(-c2ccc3ncc4ccc(=O)n(-c5cccc(C(F)(F)F)c5)c4c3c2)cn1 [Torin2, reference compound] | 1.46%
CCC(=O)N1CCN(c2ccc(-n3c(=O)ccc4cnc5ccc(-c6cnc7ccccc7c6)cc5c43)cc2C(F)(F)F)CC1 [Torin 1, reference compound] | 7.00%

Same assay, conditions: Severe acute respiratory syndrome coronavirus 2; 1.25 μM (non-toxic compound concentration), n4

SMILES | inhibition at 1.25 µM
Cc1ccc(CN2C(=O)c3ccccc3[C@@H](C(=O)Nc3cccc(N4CCN(C)CC4)c3)[C@@H]2c2ccc(C(F)(F)F)nc2)cc1 (relative stereo) [OC968] | 2.09%
Cc1ccc(CN2C(=O)c3ccccc3[C@@H](C(=O)Nc3ccc(N4CCN(C)CC4)cc3)[C@@H]2c2ccc(C(F)(F)F)cc2)cc1 (relative stereo) [OC972] | 5.37%

What follows are compounds tested against T1, HPV16 E7 protein (Human papillomavirus type 16, UniProt P03129) (assay: not given). Details: CaSki cells; adjusted degradation, CHX steady state set to 100% degradation.
T1 construct: endogenous in cells; host or cells: CaSki cells (HPV16-positive cervical carcinoma)
Type: cell-based
Protocol: For intracellular antibody labeling, 0.5×10^6 cells are washed once with 1 ml ice-cold PBS. Cells are centrifuged at 350×g for 5 minutes at 4° C. and then fixed in 1% paraformaldehyde (1 ml/10^6 cells) for 20 minutes at 4° C. Cells are washed with 1 ml ice-cold PBS and centrifuged at 350×g for 5 minutes at 4° C. To permeabilize cells, 100% ice-cold methanol (1 ml/10^6 cells) is added to the cells and incubated for 20 minutes at 4° C. followed by centrifugation at 350×g for 5 minutes at 4° C. Cells are washed with 1 ml ice-cold PBS, centrifuged at 350×g for 5 minutes at 4° C. and resuspended in 0.1% saponin+2% FBS in PBS (ice-cold). Cells are left for 20-30 minutes at room temperature to reduce the background signal and then centrifuged at 350×g for 5 minutes at 4° C. The primary antibody (mAb_HPV16E7-1 (VS13004); concentration 1 μg/μl) is diluted in 0.1% saponin+2% FBS (dilution 0.25 μg/50 μl of incubation buffer per 1×10^6 cells (5 ng/μl)). Cells are incubated with primary antibody for 30 minutes at room temperature, washed with 0.1% saponin+2% FBS and centrifuged at 350×g for 5 minutes at 4° C. The secondary antibody (FITC conjugated goat anti-mouse IgG1-IgM, BD, cat. #555988) is diluted in 0.1% saponin+2% FBS (dilution 1:50). Cells are incubated with secondary antibody for 30 minutes at room temperature, washed once with 0.1% saponin+2% FBS, once with PBS and centrifuged at 350×g for 5 minutes at 4° C.
Cells are resuspended in 700 μl PBS prior to CF analysis with a Beckman Coulter FC 500 MPL, (excitation laser 488 nm). Data analysis is done using the Beckman Coulter software packages MXP for acquisition and CXP for data analysis which includes MFI calculation. Detection of HPV-E7 protein expression is based on morphology back-gating of FL1 histogram (logarithmic scale) with gating for dot plot FS (Forward Scatter) log/SS (Sideward Scatter) log and gating for histograms SS log.
In order to define the level of E7 protein expression and to study the extent of E7 protein steady state level reduction in E7 expressing cells in the presence of various compounds, FC analysis is implemented using the intracellular antibody labeling procedure for monoclonal antibodies to HPV E7. E7 signal intensities are analyzed from the obtained FL1 histograms at logarithmic scale. The FL1 single histogram graph represents the variation in the mean fluorescence intensity (MFI) channel for cells treated with selected compounds compared to cells not incubated with primary antibodies but incubated with secondary, which allows to test for auto-fluorescence, and non-compound treated cells as controls. Non-primary antibody-stained cells are used to set the acquisition parameters to zero. Decrease of the mean fluorescence intensity channel corresponds to a decrease in the expression of HPV16 E7 protein. Degradation of E7 in cells is calculated as percent (%) reduction in MFI(x-Me) using the following formulas: % Drel=(T−C)/T*100; i) relative degradation: % Dad=(T−C)/(T−CHX)*100; ii) adjusted degradation: • Drel=relative degradation, • Dad=adjusted degradation assuming CHX % Drel=100; • T=MFI of non-treated cells; • C=MFI of compound treated cells; • CH=MFI of cycloheximide (CHX) treated cells;
For comparison within one experiment i) the % relative degradation (Drel) is sufficient, whereas for comparison between two or more experiments ii) the adjusted degradation (Dad) is used and CHX steady state is set to a 100% degradation parameter.
1×10^6 freshly seeded CaSki cells (ATCC CRL-7915), are grown in 10 cm diameter cell culture dishes in RPMI1640, 10% FCS medium at 37° C. 5% CO2 overnight and then incubated in the presence of 10 μM Cycloheximide (CHX) 10 μM OC246 or with vehicle alone for four hours at 37° C. 5% CO2. Following this E7 protein is assessed by cytofluorimetric analysis using intracellular HPV16 E7 antibody labeling. […]

T1 sequence (P03129 whole entry): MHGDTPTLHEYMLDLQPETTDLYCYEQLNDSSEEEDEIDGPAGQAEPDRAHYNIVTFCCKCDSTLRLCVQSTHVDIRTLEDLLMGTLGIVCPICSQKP

SMILES | % Dad
Cc1ccc(CN2C(=O)c3ccccc3[C@@H](C(=O)Nc3cccc(N4CCN(C)CC4)c3)[C@@H]2c2ccc(C(F)(F)F)nc2)cc1 (relative stereo) [OC968] | 37%
Cc1ccc(CN2C(=O)c3ccccc3[C@@H](C(=O)Nc3ccc(N4CCN(C)CC4)cc3)[C@@H]2c2ccc(C(F)(F)F)cc2)cc1 (relative stereo) [OC972] | 32%
